Data set [1] deals with T1, Histone-lysine N-methyltransferase EHMT1 (Homo sapiens, UniProt Q9H9B1).
T1 sequence (Q9H9B1 whole entry): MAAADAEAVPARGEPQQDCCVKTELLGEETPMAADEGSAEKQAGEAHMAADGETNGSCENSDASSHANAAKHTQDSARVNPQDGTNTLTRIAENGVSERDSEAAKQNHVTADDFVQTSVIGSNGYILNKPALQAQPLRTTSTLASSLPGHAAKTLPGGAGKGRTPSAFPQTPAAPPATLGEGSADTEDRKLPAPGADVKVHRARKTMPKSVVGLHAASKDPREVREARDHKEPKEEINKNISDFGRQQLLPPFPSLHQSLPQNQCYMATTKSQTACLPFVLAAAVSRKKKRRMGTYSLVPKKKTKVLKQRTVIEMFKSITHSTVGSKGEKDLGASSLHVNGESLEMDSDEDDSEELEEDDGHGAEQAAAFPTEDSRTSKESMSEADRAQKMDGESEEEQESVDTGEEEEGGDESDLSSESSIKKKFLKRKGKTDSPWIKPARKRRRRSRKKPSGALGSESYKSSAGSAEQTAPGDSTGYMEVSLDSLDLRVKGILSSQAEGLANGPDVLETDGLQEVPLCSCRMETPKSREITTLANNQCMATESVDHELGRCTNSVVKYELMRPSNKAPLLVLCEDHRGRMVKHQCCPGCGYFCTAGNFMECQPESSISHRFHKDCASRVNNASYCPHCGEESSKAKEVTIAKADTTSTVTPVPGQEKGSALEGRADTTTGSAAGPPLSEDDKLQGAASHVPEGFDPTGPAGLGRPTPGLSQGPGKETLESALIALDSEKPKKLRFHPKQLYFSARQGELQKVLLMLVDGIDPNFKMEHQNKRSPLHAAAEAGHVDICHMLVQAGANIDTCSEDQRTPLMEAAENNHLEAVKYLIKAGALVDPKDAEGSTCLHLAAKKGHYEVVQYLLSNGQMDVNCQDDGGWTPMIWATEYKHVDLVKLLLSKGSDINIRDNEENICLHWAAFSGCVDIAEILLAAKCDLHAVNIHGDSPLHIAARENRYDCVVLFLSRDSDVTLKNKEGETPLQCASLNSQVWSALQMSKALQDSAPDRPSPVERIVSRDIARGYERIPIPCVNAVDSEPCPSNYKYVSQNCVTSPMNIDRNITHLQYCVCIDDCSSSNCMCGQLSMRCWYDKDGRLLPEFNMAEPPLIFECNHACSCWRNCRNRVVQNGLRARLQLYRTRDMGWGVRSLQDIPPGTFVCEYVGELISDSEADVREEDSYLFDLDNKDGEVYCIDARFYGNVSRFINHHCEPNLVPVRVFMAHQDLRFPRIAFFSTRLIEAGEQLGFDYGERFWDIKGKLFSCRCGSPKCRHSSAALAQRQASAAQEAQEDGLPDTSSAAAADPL
The data set can be described thus: Inhibition of GLP (unknown origin).

The test system of data set [2] is CD34-positive (myeloid/lymphoid) cell. As to the kind of experiment: Induction of fetal globin in human CD34+ cells assessed as switching of mRAN expression from adult beta-globin to fetal type gamma globin at 0.3 to 1 uM by qRT-PCR analysis. It is filed as functional, cell-based.
A short description of data set [3]: Lipophilicity, log D of compound. It is filed as physicochemical. Particulars: octanol/water.
Data set [4] in a line: Apparent permeability in MDCK cells. The settings on record: dog. It counts as ADME, cell-based, Canis lupus familiaris.
The nature of data set [5]: Aqueous solubility of the compound in pH 1.2 JP1 fluid. It counts as physicochemical.
Data set [6] can be described thus: Aqueous solubility of the compound in pH 6.8 JP2 fluid. It is filed as physicochemical.
Data set [7] can be described thus: Metabolic stability in monkey liver microsomes assessed as compound remaining at 0.5 mg/mL incubated for 0.5 hrs. The settings on record: rhesus monkey, read-out: Stabilty. It is filed as ADME, Macaca mulatta, Microsome. For orientation: Liver microsomes are a subcellular fraction often used to study metabolism.
A short description of data set [8]: Metabolic stability in human liver microsomes assessed as compound remaining at 0.5 mg/mL incubated for 0.5 hrs. It counts as ADME, Microsome. Particulars: read-out: Stabilty.
In another data set the target is T2, CYP2C8 (Homo sapiens, UniProt P10632).
T2 sequence (P10632 whole entry): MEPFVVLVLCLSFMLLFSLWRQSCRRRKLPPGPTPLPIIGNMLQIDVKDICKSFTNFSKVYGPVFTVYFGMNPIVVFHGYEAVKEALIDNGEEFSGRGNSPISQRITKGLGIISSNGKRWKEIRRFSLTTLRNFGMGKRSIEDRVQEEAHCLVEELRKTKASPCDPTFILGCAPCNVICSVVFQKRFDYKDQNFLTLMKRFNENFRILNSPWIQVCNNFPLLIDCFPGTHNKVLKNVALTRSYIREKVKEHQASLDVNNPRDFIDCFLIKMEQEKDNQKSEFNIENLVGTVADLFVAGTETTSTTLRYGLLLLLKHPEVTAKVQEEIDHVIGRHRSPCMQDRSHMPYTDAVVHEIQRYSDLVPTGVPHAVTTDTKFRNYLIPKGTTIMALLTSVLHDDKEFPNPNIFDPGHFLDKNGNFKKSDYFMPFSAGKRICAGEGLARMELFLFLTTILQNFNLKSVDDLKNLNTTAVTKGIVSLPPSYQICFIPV
The data set can be described thus: Inhibition of CYP2C8 (unknown origin) at 10 uM relative to control. It is filed as ADME.

The target in another data set is CYP2C9 (Homo sapiens, UniProt P11712). The data set can be described thus: Inhibition of CYP2C9 (unknown origin) at 10 uM relative to control. It counts as ADME.
Chain of CYP2C9 (P11712 whole entry): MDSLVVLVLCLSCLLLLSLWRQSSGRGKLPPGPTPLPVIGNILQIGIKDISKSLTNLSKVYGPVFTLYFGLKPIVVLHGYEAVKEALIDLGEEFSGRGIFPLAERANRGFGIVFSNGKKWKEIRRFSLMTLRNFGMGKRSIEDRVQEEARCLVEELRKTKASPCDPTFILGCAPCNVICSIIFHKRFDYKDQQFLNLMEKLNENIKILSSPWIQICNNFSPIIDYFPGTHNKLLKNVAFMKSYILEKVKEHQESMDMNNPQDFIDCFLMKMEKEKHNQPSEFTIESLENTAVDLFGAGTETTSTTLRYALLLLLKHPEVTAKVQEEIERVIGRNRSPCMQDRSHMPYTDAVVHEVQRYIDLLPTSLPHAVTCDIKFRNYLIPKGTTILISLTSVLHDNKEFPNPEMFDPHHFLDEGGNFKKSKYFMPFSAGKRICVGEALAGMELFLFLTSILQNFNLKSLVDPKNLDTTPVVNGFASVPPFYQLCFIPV
The target of the next data set is CYP2D6 (Homo sapiens, UniProt P10635). The data set can be described thus: Inhibition of CYP2D6 (unknown origin) at 10 uM relative to control. It counts as ADME.
Chain of CYP2D6 (P10635 whole entry): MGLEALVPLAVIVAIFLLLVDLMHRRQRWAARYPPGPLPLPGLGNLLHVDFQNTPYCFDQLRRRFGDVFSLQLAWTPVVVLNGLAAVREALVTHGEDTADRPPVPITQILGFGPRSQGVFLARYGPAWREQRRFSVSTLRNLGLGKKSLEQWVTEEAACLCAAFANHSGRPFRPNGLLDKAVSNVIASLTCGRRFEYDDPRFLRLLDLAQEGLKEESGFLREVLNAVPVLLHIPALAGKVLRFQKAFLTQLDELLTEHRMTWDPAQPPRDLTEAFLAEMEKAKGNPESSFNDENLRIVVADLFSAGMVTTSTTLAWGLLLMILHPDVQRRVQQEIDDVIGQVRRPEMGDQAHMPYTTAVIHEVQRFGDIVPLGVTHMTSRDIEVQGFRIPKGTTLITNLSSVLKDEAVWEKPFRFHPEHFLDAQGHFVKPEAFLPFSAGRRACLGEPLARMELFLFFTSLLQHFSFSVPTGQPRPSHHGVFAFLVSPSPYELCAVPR
In the next data set the target is CYP3A4 (Homo sapiens, UniProt P08684). The data set can be described thus: Inhibition of CYP3A4 (unknown origin) at 10 uM relative to control. It counts as ADME.
Chain of CYP3A4 (P08684 whole entry): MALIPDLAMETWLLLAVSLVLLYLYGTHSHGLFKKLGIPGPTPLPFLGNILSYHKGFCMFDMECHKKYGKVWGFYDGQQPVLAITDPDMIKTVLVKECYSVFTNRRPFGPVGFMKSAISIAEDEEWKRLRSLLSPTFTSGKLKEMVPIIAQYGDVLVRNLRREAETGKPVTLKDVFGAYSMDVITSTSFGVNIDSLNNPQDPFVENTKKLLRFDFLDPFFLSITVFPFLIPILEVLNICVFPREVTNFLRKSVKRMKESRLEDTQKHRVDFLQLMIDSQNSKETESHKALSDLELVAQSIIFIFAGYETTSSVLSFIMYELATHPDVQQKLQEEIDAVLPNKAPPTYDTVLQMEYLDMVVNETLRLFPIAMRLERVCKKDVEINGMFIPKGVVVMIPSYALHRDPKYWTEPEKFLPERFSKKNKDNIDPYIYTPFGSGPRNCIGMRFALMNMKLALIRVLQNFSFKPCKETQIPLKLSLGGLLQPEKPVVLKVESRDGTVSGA
The target in another data set is hERG (KCNH2) (Homo sapiens, UniProt Q12809). As to the kind of experiment: Inhibition of human ERG at 10 uM relative to control.
Chain of hERG (KCNH2) (Q12809 whole entry): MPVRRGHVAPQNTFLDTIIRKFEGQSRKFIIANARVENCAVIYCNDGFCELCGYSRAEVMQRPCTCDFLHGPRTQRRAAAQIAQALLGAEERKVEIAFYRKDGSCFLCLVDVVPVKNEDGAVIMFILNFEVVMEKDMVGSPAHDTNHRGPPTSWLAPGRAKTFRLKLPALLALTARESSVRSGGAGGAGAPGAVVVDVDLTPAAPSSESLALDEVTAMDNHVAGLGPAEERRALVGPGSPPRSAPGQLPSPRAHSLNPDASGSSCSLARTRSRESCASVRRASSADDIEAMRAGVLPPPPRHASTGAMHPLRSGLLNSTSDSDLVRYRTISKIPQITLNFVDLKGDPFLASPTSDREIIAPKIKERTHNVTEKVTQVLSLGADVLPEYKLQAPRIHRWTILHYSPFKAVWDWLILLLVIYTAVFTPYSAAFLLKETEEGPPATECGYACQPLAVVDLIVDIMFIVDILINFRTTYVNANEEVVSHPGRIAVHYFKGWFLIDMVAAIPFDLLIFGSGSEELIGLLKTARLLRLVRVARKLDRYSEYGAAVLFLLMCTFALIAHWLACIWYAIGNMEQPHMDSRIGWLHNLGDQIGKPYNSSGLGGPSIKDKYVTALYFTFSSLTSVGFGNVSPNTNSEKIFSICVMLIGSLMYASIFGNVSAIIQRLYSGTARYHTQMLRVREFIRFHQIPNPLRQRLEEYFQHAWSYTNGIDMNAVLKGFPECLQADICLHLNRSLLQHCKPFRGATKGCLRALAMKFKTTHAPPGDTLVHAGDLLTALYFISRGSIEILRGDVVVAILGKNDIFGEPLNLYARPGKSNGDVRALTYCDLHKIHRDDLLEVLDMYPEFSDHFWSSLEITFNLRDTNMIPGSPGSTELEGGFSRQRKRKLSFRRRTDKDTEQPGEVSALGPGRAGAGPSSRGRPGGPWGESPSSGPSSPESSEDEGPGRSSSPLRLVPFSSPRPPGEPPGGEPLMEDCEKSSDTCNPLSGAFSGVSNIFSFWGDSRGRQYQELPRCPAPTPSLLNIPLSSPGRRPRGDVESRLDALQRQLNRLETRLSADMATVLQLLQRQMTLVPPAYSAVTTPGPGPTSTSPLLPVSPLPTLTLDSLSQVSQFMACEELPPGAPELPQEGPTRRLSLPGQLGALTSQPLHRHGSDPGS
A short description of data set [9]: Initial plasma concentration in mouse at 1 mg/kg, iv. It is filed as ADME, organism-based.
Data set [10] can be described thus: AUC (0 to infinity) in mouse at 1 mg/kg, iv. It counts as ADME, organism-based. Also noted: time infinity, route intravenous, dose 1 mg/kg. The settings on record: in vivo.
A short description of data set [11]: Intrinsic clearance in mouse at 1 mg/kg, iv. It counts as ADME, organism-based. Particulars: in vivo.

In brackets after ≈: the same amount, converted by molar mass. Activity calls are given as the source filed them. The rule behind the calls is not given here.

On to `CNc1cc(C)nc(Nc2ccc(OC)c(C3=CCNCCC3)c2)n1`, for which, in data set [1], the IC50 is 32.3 nM. Also, the outcome in data set [2] was Active. The same compound came in with a logD in [3] of 0.5. Moreover, the Papp in [4] is 1.4 ×10⁻⁶ cm/s. For the same compound, the solubility in [5] is 680 µg/mL (≈ 2000 µM); in data set [6], 640 µg/mL (≈ 1890 µM). Moreover, the remaining at 0.5 h in [7] was determined as 24%; in data set [8] it was 96%. Moreover, the inhibition at 10 µM came to 0% against CYP2C8; 0% against CYP2C9; 3% against CYP2D6; 0% at CYP3A4; 1% at hERG (KCNH2). The C0 in data set [9] was found to be 400 nM. In data set [10], this compound came in with an AUC(0-inf) of 0.79 µM·h. For the same compound, in data set [11], the CL came to 62.9 mL/min/kg.
For `CNc1cc(C)nc(Nc2ccc(OC)c(OCCCN3CCCC3)c2)n1`, 185 nM corresponded to half-maximal inhibition in [1] (IC50). In addition, the outcome in data set [2] was Active. Further, the logD in [3] stood at 0.8. For the same compound, in data set [4], the Papp came to 3.1 ×10⁻⁶ cm/s. Besides, the solubility in data set [5] worked out at 740 µg/mL (≈ 1990 µM); in data set [6] it was 590 µg/mL (≈ 1590 µM). Moreover, the remaining at 0.5 h in [7] turned out to be 8%; in data set [8], 99%. Moreover, the inhibition at 10 µM was determined as 2% on CYP2C8; 0% against CYP2C9; 8% on CYP2D6; 8% against CYP3A4; 42% at hERG (KCNH2). In data set [9], this compound gave a C0 of 260 nM. The same compound displayed an AUC(0-inf) in data set [10] of 1.71 µM·h. The same compound had a CL in [11] of 27.4 mL/min/kg.

One may read the IC50 as the concentration that gives 50% inhibition. Broadly, the logD is the decadic logarithm of the distribution of all forms, ionised or not, between an organic phase and buffer at a given pH. For orientation: Papp means a coefficient for how fast a substance crosses the barrier. What is called solubility is how much of the substance goes into solution per volume. Usually inhibition stands for the percentage by which the read-out fell short of the control. Broadly, the AUC(0-inf) is the area under the concentration-time curve extrapolated to infinity.

(Values after ChEMBL document CHEMBL4725338, “Discovery of novel histone lysine methyltransferase G9a/GLP (EHMT2/1) inhibitors: Design, synthesis, and structure-activity relationships of 2,4-diamino-6-methylpyrimidines” (Bioorg Med Chem Lett, 2020).)
